These results are taken from patent US20250154198A1, “PEPTIDE INHIBITORS OF INTERLEUKIN-23 RECEPTOR” (Zealand Pharma A/S, priority 2021, published 2025).

Like-named read-outs stand apart in the source and are kept apart here. *1 amine or outer side, *2 acyl side, *3 side chain or, on linkers, in order; H or OH if unused. Where a SMILES comes first, the peptide text is derived from it. Bridges are numbered along the chain shown (N, C = ends). [ ]: non-standard residue; d: D form. Trp(6-F) = N[C@@H](Cc1c[nH]c2cc(F)ccc12)C(=O)O; Phe(4-NH2) = Nc1ccc(C[C@H](N)C(=O)O)cc1; 2Nal = N[C@@H](Cc1ccc2ccccc2c1)C(=O)O; AEF = NCCOc1ccc(C[C@H](N)C(=O)O)cc1; X1 = O=C(Cc1ccc(CN[*:1])cc1)[*:2]; 3Pal = N[C@@H](Cc1cccnc1)C(=O)O; αMeL = CC(C)C[C@](C)(N)C(=O)O; CH2COCH2 = O=C(C[*:1])C[*:2]; 3Amb = NCc1cccc(C(=O)O)c1; Dab = NCC[C@H](N)C(=O)O

The nature of data set [1]: Peptide stability in simulated gastric fluid (SGF). It counts as in vitro ADME. To be noted: pig. How it is done:
Determination of Peptide Stability in Simulated Gastric Fluid (SGF) and Simulated Intestinal Fluid (SIF)
SGF was prepared by dissolving sodium chloride (0.2 g) in 50 mL of water. A volume of 0.7 mL of 10 M HCl was added to adjust the pH of the solution to 1.2 and the volume made up to 100 mL with water. […] SIF was prepared by dissolving monobasic potassium phosphate (0.68 g) in 50 mL of water and adjusting the pH to 6.8 with 1 M NaOH. The volume was subsequently made up to 100 mL with water. 200 mg porcine pancreatin (P1625, Sigma Aldrich) was gently dissolved into 20 mL preheated (37° C.) solution (10 g/L) immediately prior to the incubation.
The incubation was performed at 37° C. with gentle shaking. […] After the last timepoint, the sampling plate was mixed for 10 min on a shaking table and centrifuged 10 min at 2200 g. 70 μL resulting supernatant was diluted with 150 μL water, mixed and centrifugated before analysis by liquid chromatography high resolution mass spectrometry. […] Percent remaining at each timepoint was calculated relative to timepoint zero based on absolute peak areas.

For another data set, the target named is T1, human IL-23R (Homo sapiens, UniProt Q5VWK5).
T1 construct: UniProtKB—Q5VWK5, amino acids 22-629; secretion signal of the plasmid (Promega N1371); expressed in transfected cells
T1 sequence (Q5VWK5 22-629): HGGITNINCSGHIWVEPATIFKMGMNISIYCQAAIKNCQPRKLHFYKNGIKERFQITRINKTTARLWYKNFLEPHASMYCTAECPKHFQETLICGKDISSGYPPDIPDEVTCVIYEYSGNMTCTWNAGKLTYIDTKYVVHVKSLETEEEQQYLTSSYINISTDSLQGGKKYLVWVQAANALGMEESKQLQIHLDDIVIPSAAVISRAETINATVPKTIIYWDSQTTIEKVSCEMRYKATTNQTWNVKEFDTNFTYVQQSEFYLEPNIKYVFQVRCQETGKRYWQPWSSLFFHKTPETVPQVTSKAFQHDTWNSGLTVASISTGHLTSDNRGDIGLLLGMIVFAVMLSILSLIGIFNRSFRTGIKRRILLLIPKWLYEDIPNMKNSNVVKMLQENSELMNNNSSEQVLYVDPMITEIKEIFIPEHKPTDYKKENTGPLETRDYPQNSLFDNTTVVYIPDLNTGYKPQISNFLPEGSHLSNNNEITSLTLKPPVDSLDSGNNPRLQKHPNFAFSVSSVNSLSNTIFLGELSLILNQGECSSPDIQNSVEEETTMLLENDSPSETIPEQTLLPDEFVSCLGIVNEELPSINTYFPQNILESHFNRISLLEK
Description: Binding assay (NanoBRET displacement of fluorophore-labelled reference compound) for estimating binding affinity to human IL-23R.

Data set [2] can be described thus: Peptide stability in simulated intestinal fluid (SIF). To be noted: pig. It counts as in vitro ADME. Summed up: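 Peptides incubated at 37°C with gentle shaking in SGF (NaCl, HCl, pH 1.2) or SIF (phosphate pH 6.8 with 10 g/L porcine pancreatin). Samples analysed by LC-HRMS; percent remaining at each timepoint calculated from absolute peak areas relative to time zero.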

Setting [3] is: simulated gastric fluid (SGF) with porcine pepsin, Table 3-3, porcine pepsin, pH 1.2, 37° C., 10 μM, 1 h, read-out: SGF (% remaining 1 h).
[4] abbreviates: Table 3-1, read-out: Ki hIL-23R.
The mark [5] stands for this setting: simulated intestinal fluid (SIF) with porcine pancreatin, Table 3-2, porcine pancreatin, pH 6.8, 37° C., 10 μM, 1 h, read-out: SIF (% remaining 1 h).
Where [6] appears, read: simulated intestinal fluid (SIF) with porcine pancreatin, Table 3-2, porcine pancreatin, pH 6.8, 37° C., 10 μM, 4 h, read-out: SIF (% remaining 4 h).
Setting [7] is: simulated gastric fluid (SGF) with porcine pepsin, Table 3-3, porcine pepsin, pH 1.2, 37° C., 10 μM, 4 h, read-out: SGF (% remaining 4 h).

The term amount remaining denotes what is left of the initial amount, in per cent. As a reminder, the Ki is the dissociation constant of the complex between target and ligand, obtained from inhibition or displacement. On to `CC(C)C[C@@H]1NC(=O)[C@H](Cc2ccc3ccccc3c2)NC(=O)[C@H](Cc2ccc(OCCN)cc2)NC(=O)[C@@H]2CSCC(=O)CSC[C@H](NC(=O)[C@H](CO)NC(=O)c3cccc(c3)CNC(=O)CC[C@@H](C(=O)N[C@@H](CCCNC(=N)N)C(N)=O)NC1=O)C(=O)N[C@@H](Cc1c[nH]c3ccccc13)C(=O)N[C@@H](CCC(N)=O)C(=O)N2` [Compound 39, [(3-Aminomethyl)benzoyl](1c)*SC(2a)WQC(2a)[Y(2-aminoethoxy)][2-Nal]LE(1c)R-[NH2]] ([3Amb]SCWQC[AEF][2Nal]LER-NH2; linker 3-6 via CH2COCH2; lactam N-10), for which the values for the share remaining at 1 h, 10 μM in data set [1] (setting [3]) and in data set [2] (setting [5]) were 90% and 0%, respectively. Moreover, the inhibitory constant (Ki) on human IL-23R (setting [4]) was 1.4 nM. The share remaining at 4 h, 10 μM in data set [2] (setting [6]) is 0%.
Consider `CC(C)C[C@]1(C)NC(=O)[C@H](Cc2c[nH]c3cc(F)ccc23)NC(=O)[C@H](Cc2ccc(OCCN)cc2)NC(=O)[C@@H]2CSCC(=O)CSC[C@H](NC(=O)[C@H](CO)NC(=O)Cc3ccc(cc3)CNC(=O)CC[C@@H](C(=O)N[C@@H](CCN)C(=O)N[C@@H](Cc3cccnc3)C(N)=O)NC1=O)C(=O)N[C@@H](Cc1c[nH]c3ccccc13)C(=O)N[C@@H](CCC(N)=O)C(=O)N2` [Compound 121, [4-Aminomethyl-phenylacetyl](1c)*SC(2a)WQC(2a)[Y(2-aminoethoxy)][6-F-Trp][2-Me-Leu]E(1c)[Dab][3-(3-Pyridyl)-Ala]-[NH2]] ([X1]SCWQC[AEF][Trp(6-F)][αMeL]E[Dab][3Pal]-NH2; linker 3-6 via CH2COCH2; lactam N-10), for which the values for the share remaining at 1 h, 10 μM in data set [1] (pH 1.2) and in data set [2] (pH 6.8) were 82% and 57%, respectively. For the same compound, the share remaining at 4 h, 10 μM in data set [1] (pH 1.2) is 80%; in data set [2] (pH 6.8), 6%. The Ki on human IL-23R (setting [4]) was 0.00954 nM.
Consider `CC(C)C[C@@H]1NC(=O)[C@H](Cc2c[nH]c3ccccc23)NC(=O)[C@H](Cc2c[nH]c3ccccc23)NC(=O)[C@@H]2CSCC(=O)CSC[C@H](NC(=O)[C@H](CO)NC(=O)[C@@H](NC(=O)[C@@H](N)CC(C)C)CSCC(=O)CSC[C@@H](C(=O)N[C@@H](CCCNC(=N)N)C(N)=O)NC1=O)C(=O)N[C@@H](Cc1c[nH]c3ccccc13)C(=O)N[C@@H](CCC(N)=O)C(=O)N2` [Compound 2, H-LC(1a)SC(2a)WQC(2a)WWLC(1a)R-[NH2]] (HELM PEPTIDE1{L.C.S.C.W.Q.C.W.W.L.C.R.[am]}|CHEM1{[O=C(C[*:1])C[*:2]]}|CHEM2{[O=C(C[*:1])C[*:2]]}$PEPTIDE1,CHEM1,2:R3-1:R1|PEPTIDE1,CHEM1,11:R3-1:R2|PEPTIDE1,CHEM2,4:R3-1:R1|PEPTIDE1,CHEM2,7:R3-1:R2$$$V2.0), for which the amount remaining at 1 h, 10 μM is 6% in data set [1] (Table 3-3, porcine pepsin, pH 1.2, 37° C., 10 μM, 1 h, read-out: SGF (% remaining 1 h)) and 0% in data set [2] (Table 3-2, porcine pancreatin, pH 6.8, 37° C., 10 μM, 1 h, read-out: SIF (% remaining 1 h)). Further, the fraction remaining at 4 h, 10 μM in data set [1] (Table 3-3, porcine pepsin, pH 1.2, 37° C., 10 μM, 4 h, read-out: SGF (% remaining 4 h)) is 1%; in data set [2] (Table 3-2, porcine pancreatin, pH 6.8, 37° C., 10 μM, 4 h, read-out: SIF (% remaining 4 h)), 0%. The Ki on human IL-23R was 32.3 nM.
Regarding `CC(C)C[C@]1(C)NC(=O)[C@H](Cc2ccc3ccccc3c2)NC(=O)[C@H](Cc2ccc(OCCN)cc2)NC(=O)[C@@H]2CSCC(=O)CSC[C@H](NC(=O)[C@H](CO)NC(=O)c3cccc(c3)CNC(=O)CC[C@@H](C(=O)N[C@@H](CCCNC(=N)N)C(N)=O)NC1=O)C(=O)N[C@@H](Cc1c[nH]c3ccccc13)C(=O)N[C@@H](CCC(N)=O)C(=O)N2` [Compound 38, [(3-Aminomethyl)benzoyl](1c)*SC(2a)WQC(2a)[Y(2-aminoethoxy)][2-Nal][2-Me-Leu]E(1c)R-[NH2]] ([3Amb]SCWQC[AEF][2Nal][αMeL]ER-NH2; linker 3-6 via CH2COCH2; lactam N-10), the amount remaining at 4 h, 10 μM was 84% in data set [1] (setting [7]) and 5% in data set [2] (setting [6]). On human IL-23R (setting [4]), the Ki was 2.56 nM. Besides, the fraction remaining at 1 h, 10 μM in data set [2] (setting [5]) is 29%.
Take `CC(C)C[C@]1(C)NC(=O)[C@H](Cc2ccc3ccccc3c2)NC(=O)[C@H](Cc2ccc(OCCN)cc2)NC(=O)[C@@H]2CSCC(=O)CSC[C@H](NC(=O)[C@H](CO)NC(=O)c3cccc(c3)CNC(=O)CC[C@@H](C(=O)N[C@@H](CO)C(N)=O)NC1=O)C(=O)N[C@@H](Cc1c[nH]c3ccccc13)C(=O)N[C@@H](CCC(N)=O)C(=O)N2` [Compound 44, [(3-Aminomethyl)benzoyl](1c)*SC(2a)WQC(2a)[Y(2-aminoethoxy)][2-Nal][2-Me-Leu]E(1c)S-[NH2]]: the amount remaining at 4 h, 10 μM in data set [1] (setting [7]) is 73%. Moreover, the inhibition constant (Ki) on human IL-23R (setting [4]) is 4.87 nM. Moreover, the amount remaining at 1 h, 10 μM in data set [2] (setting [5]) is 79%.
For the compound `CC(C)C[C@]1(C)NC(=O)[C@H](Cc2ccc3ccccc3c2)NC(=O)[C@H](Cc2ccc(OCCN)cc2)NC(=O)[C@@H]2CSCC(=O)CSC[C@H](NC(=O)[C@H](CO)NC(=O)c3cccc(c3)CNC(=O)CC[C@@H](C(=O)N[C@@H](Cc3ccc(N)cc3)C(N)=O)NC1=O)C(=O)N[C@@H](Cc1c[nH]c3ccccc13)C(=O)N[C@@H](CCC(N)=O)C(=O)N2` [Compound 45, [(3-Aminomethyl)benzoyl](1c)*SC(2a)WQC(2a)[Y(2-aminoethoxy)][2-Nal][2-Me-Leu]E(1c)[F(4-NH2)]-[NH2]] ([3Amb]SCWQC[AEF][2Nal][αMeL]E[Phe(4-NH2)]-NH2; linker 3-6 via CH2COCH2; lactam N-10), the amount remaining at 1 h, 10 μM in data set [1] (setting [3]) was 76%. For the same compound, the values for the fraction remaining at 4 h, 10 μM in data set [1] (setting [7]) and in data set [2] (setting [6]) were 84% and 34%, respectively. For the same compound, the Ki at human IL-23R (setting [4]) was 12 nM.
On to `CC(C)C[C@]1(C)NC(=O)[C@H](Cc2ccc3ccccc3c2)NC(=O)[C@H](Cc2ccc(OCCN)cc2)NC(=O)[C@@H]2CCCNC(=O)CC[C@H](NC(=O)[C@H](CO)NC(=O)Cc3ccc(cc3)CNC(=O)CC[C@@H](C(=O)N[C@@H](CCN)C(=O)N[C@@H](Cc3cccnc3)C(N)=O)NC1=O)C(=O)N[C@@H](Cc1c[nH]c3ccccc13)C(=O)N[C@@H](CCC(N)=O)C(=O)N2` [Compound 124, [4-Aminomethyl-phenylacetyl](1c)*SE(2c)WQ[Orn](2c)[Y(2-aminoethoxy)][2-Nal][2-Me-Leu]E(1c)[Dab][3-(3-Pyridyl)-Ala]-[NH2]], for which the results for the amount remaining at 4 h, 10 μM in data set [1] (setting [7]) and in data set [2] (setting [6]) were 89% and 0%, respectively. At human IL-23R (setting [4]), the inhibitory constant (Ki) is 0.0107 nM. The fraction remaining at 1 h, 10 μM in data set [2] (setting [5]) is 35%.
In the case of `CC(C)C[C@H]1NC(=O)[C@H](Cc2ccc3ccccc3c2)NC(=O)[C@H](Cc2ccc(OCCN)cc2)NC(=O)[C@@H]2CSCC(=O)CSC[C@H](NC(=O)[C@H](CO)NC(=O)c3cccc(c3)CNC(=O)CC[C@@H](C(=O)N[C@@H](Cc3ccc(O)cc3)C(N)=O)NC1=O)C(=O)N[C@@H](Cc1c[nH]c3ccccc13)C(=O)N[C@@H](CCC(N)=O)C(=O)N2` [Compound 46, [(3-Aminomethyl)benzoyl](1c)*SC(2a)WQC(2a)[Y(2-aminoethoxy)][2-Nal][{d}L]E(1c)Y-[NH2]] ([3Amb]SCWQC[AEF][2Nal][dL]EY-NH2; linker 3-6 via CH2COCH2; lactam N-10), the share remaining at 1 h, 10 μM in data set [1] (setting [3]) was 83%; in data set [2] (setting [5]), 9%. Besides, the fraction remaining at 4 h, 10 μM is 66% in data set [1] (setting [7]) and 0% in data set [2] (setting [6]). Further, the Ki at human IL-23R (setting [4]) is 48.2 nM.
